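Cultured in 96-well plates, cells were exposed to test compound for 48 hours across five concentrations. GI50 is the concentration that inhibits growth by half. TGI: total growth inhibition.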
Key:
Test in all cases: DTP human tumour cell line panel, 48 h
HOP-62 NSCLC = test system: HOP-62 NSCLC
UACC-62 melanoma = test system: UACC-62 melanoma
PC-3 prostate = test system: PC-3 prostate
MDA-MB-231 breast = test system: MDA-MB-231 breast
SK-MEL-5 melanoma = test system: SK-MEL-5 melanoma
NCI-H23 lung = test system: NCI-H23 lung
SF-268 CNS = test system: SF-268 CNS
HOP-92 NSCLC = test system: HOP-92 NSCLC
SF-295 CNS = test system: SF-295 CNS
UACC-257 melanoma = test system: UACC-257 melanoma
SK-OV-3 ovarian = test system: SK-OV-3 ovarian
M14 melanoma = test system: M14 melanoma
MCF7 breast = test system: MCF7 breast
T-47D breast = test system: T-47D breast
SW-620 colon = test system: SW-620 colon
OVCAR-8 ovarian = test system: OVCAR-8 ovarian
IGROV1 ovarian = test system: IGROV1 ovarian
RPMI-8226 leukemia = test system: RPMI-8226 leukemia
NCI/ADR-RES ovarian = test system: NCI/ADR-RES ovarian
OVCAR-4 ovarian = test system: OVCAR-4 ovarian
786-0 renal = test system: 786-0 renal
K-562 leukemia = test system: K-562 leukemia
HS 578T breast = test system: HS 578T breast
CAKI-1 renal = test system: CAKI-1 renal
UO-31 renal = test system: UO-31 renal
SF-539 CNS = test system: SF-539 CNS
MALME-3M melanoma = test system: MALME-3M melanoma
OVCAR-5 ovarian = test system: OVCAR-5 ovarian
A498 renal = test system: A498 renal
TK-10 renal = test system: TK-10 renal
ACHN renal = test system: ACHN renal
HCT-15 colon = test system: HCT-15 colon
SN12C renal = test system: SN12C renal
NCI-H522 lung = test system: NCI-H522 lung
A549 NSCLC = test system: A549 NSCLC
EKVX NSCLC = test system: EKVX NSCLC
NCI-H226 lung = test system: NCI-H226 lung
RXF 393 renal = test system: RXF 393 renal
SK-MEL-28 melanoma = test system: SK-MEL-28 melanoma
KM12 colon = test system: KM12 colon
SR leukemia = test system: SR leukemia
SNB-75 CNS = test system: SNB-75 CNS
SK-MEL-2 melanoma = test system: SK-MEL-2 melanoma
HT29 colon = test system: HT29 colon
U251 CNS = test system: U251 CNS
MDA-MB-435 = test system: MDA-MB-435
SNB-19 CNS = test system: SNB-19 CNS
HCT-116 colon = test system: HCT-116 colon
LOX IMVI melanoma = test system: LOX IMVI melanoma
COLO 205 colon = test system: COLO 205 colon
DU-145 prostate = test system: DU-145 prostate
MOLT-4 leukemia = test system: MOLT-4 leukemia
CCRF-CEM leukemia = test system: CCRF-CEM leukemia
HL-60(TB) leukemia = test system: HL-60(TB) leukemia
NCI-H460 lung = test system: NCI-H460 lung
BT-549 breast = test system: BT-549 breast
HCC-2998 colon = test system: HCC-2998 colon

Oc1ccc(CSc2nnc(-c3cnccn3)o2)c2cccnc12
GI50 (HOP-62 NSCLC): 449 nM
TGI (HOP-62 NSCLC): > 100000 nM
GI50 (UACC-62 melanoma): 517 nM
TGI (UACC-62 melanoma): 15700 nM
GI50 (PC-3 prostate): 335 nM
TGI (PC-3 prostate): > 100000 nM
GI50 (MDA-MB-231 breast): 840 nM
TGI (MDA-MB-231 breast): > 100000 nM
GI50 (SK-MEL-5 melanoma): 229 nM
TGI (SK-MEL-5 melanoma): 530 nM
GI50 (NCI-H23 lung): 371 nM
TGI (NCI-H23 lung): > 100000 nM
GI50 (SF-268 CNS): 453 nM
TGI (SF-268 CNS): > 100000 nM
GI50 (HOP-92 NSCLC): 202 nM
TGI (HOP-92 NSCLC): 592 nM
GI50 (SF-295 CNS): 364 nM
TGI (SF-295 CNS): > 100000 nM
GI50 (UACC-257 melanoma): 407 nM
TGI (UACC-257 melanoma): 4720 nM
GI50 (SK-OV-3 ovarian): 700 nM
TGI (SK-OV-3 ovarian): > 23700 nM
GI50 (M14 melanoma): 475 nM
TGI (M14 melanoma): > 85200 nM
GI50 (MCF7 breast): 305 nM
GI50 (T-47D breast): 379 nM
TGI (T-47D breast): > 100000 nM
GI50 (SW-620 colon): 445 nM
TGI (SW-620 colon): > 100000 nM
GI50 (OVCAR-8 ovarian): 381 nM
TGI (OVCAR-8 ovarian): > 100000 nM
GI50 (IGROV1 ovarian): 812 nM
TGI (IGROV1 ovarian): > 100000 nM
GI50 (RPMI-8226 leukemia): 395 nM
TGI (RPMI-8226 leukemia): > 100000 nM
GI50 (NCI/ADR-RES ovarian): 1890 nM
TGI (NCI/ADR-RES ovarian): > 100000 nM
GI50 (OVCAR-4 ovarian): 643 nM
TGI (OVCAR-4 ovarian): > 100000 nM
GI50 (786-0 renal): 590 nM
TGI (786-0 renal): > 100000 nM
GI50 (K-562 leukemia): 363 nM
TGI (K-562 leukemia): > 100000 nM
GI50 (HS 578T breast): 340 nM
TGI (HS 578T breast): > 100000 nM
GI50 (CAKI-1 renal): 605 nM
TGI (CAKI-1 renal): > 100000 nM
GI50 (UO-31 renal): 426 nM
TGI (UO-31 renal): > 32200 nM
GI50 (SF-539 CNS): 419 nM
TGI (SF-539 CNS): > 100000 nM
GI50 (MALME-3M melanoma): 283 nM
TGI (MALME-3M melanoma): 2190 nM
GI50 (OVCAR-5 ovarian): 1420 nM
TGI (OVCAR-5 ovarian): > 100000 nM
GI50 (A498 renal): 2220 nM
TGI (A498 renal): 7220 nM
GI50 (TK-10 renal): 3070 nM
TGI (TK-10 renal): > 100000 nM
GI50 (ACHN renal): 432 nM
TGI (ACHN renal): > 100000 nM
GI50 (HCT-15 colon): 385 nM
TGI (HCT-15 colon): > 100000 nM
GI50 (SN12C renal): 317 nM
TGI (SN12C renal): > 100000 nM
GI50 (NCI-H522 lung): 415 nM
TGI (NCI-H522 lung): > 100000 nM
GI50 (A549 NSCLC): 404 nM
TGI (A549 NSCLC): > 100000 nM
GI50 (EKVX NSCLC): 505 nM
TGI (EKVX NSCLC): > 100000 nM
GI50 (NCI-H226 lung): 1750 nM
TGI (NCI-H226 lung): > 29600 nM
GI50 (RXF 393 renal): 522 nM
TGI (RXF 393 renal): > 41000 nM
GI50 (SK-MEL-28 melanoma): 711 nM
TGI (SK-MEL-28 melanoma): > 100000 nM
GI50 (KM12 colon): 638 nM
TGI (KM12 colon): > 100000 nM
GI50 (SR leukemia): 395 nM
TGI (SR leukemia): > 100000 nM
GI50 (SNB-75 CNS): 332 nM
TGI (SNB-75 CNS): > 100000 nM
GI50 (SK-MEL-2 melanoma): 314 nM
TGI (SK-MEL-2 melanoma): 998 nM
GI50 (HT29 colon): 4000 nM
TGI (HT29 colon): > 100000 nM
GI50 (U251 CNS): 370 nM
TGI (U251 CNS): > 100000 nM
GI50 (MDA-MB-435): 359 nM
TGI (MDA-MB-435): > 100000 nM
GI50 (SNB-19 CNS): 390 nM
TGI (SNB-19 CNS): > 100000 nM
GI50 (HCT-116 colon): 334 nM
TGI (HCT-116 colon): > 100000 nM
GI50 (LOX IMVI melanoma): 383 nM
TGI (LOX IMVI melanoma): > 100000 nM
GI50 (COLO 205 colon): 3220 nM
TGI (COLO 205 colon): 11100 nM
GI50 (DU-145 prostate): 472 nM
TGI (DU-145 prostate): > 100000 nM
GI50 (MOLT-4 leukemia): 488 nM
TGI (MOLT-4 leukemia): > 100000 nM
GI50 (CCRF-CEM leukemia): 536 nM
TGI (CCRF-CEM leukemia): > 100000 nM
GI50 (HL-60(TB) leukemia): 410 nM
GI50 (NCI-H460 lung): 336 nM
TGI (NCI-H460 lung): > 100000 nM
GI50 (BT-549 breast): 283 nM
TGI (BT-549 breast): 8560 nM
GI50 (HCC-2998 colon): 697 nM
TGI (HCC-2998 colon): > 100000 nM

From PubChem BioAssay (NCI)
